Laboratory results as given in BindingDB's records for doi:10.1007/s00044-010-9428-9 (n/a, 2011).

What follows are compounds tested against T1, Peroxisome proliferator-activated receptor gamma (Homo sapiens, UniProt P37231) (assay: Transactivation activity at PPARgamma (unknown origin)).
T1 sequence (P37231 whole entry): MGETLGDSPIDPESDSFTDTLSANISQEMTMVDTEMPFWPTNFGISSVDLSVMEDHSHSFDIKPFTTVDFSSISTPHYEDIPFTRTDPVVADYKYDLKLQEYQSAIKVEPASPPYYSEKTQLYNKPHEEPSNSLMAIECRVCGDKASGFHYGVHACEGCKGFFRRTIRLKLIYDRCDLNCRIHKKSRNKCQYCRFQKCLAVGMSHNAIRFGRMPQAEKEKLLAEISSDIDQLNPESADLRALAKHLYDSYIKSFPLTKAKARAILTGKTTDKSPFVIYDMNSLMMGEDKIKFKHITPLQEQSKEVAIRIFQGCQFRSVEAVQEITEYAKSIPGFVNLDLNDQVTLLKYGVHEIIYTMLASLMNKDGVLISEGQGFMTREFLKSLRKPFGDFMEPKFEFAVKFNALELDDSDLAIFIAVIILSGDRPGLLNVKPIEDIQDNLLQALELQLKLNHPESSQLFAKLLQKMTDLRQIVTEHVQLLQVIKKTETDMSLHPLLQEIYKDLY

Row | EC50 | Structure (SMILES)
1 | 1600 nM | C/C(=N\OCCOc1ccc(Cc2sc(=O)[nH]c2O)cc1)c1ccc(-c2ccncc2)cc1 [5-(4-{2-[1-(4-Pyridin-4-yl-phenyl)-eth-(E)-ylideneaminooxy]-ethoxy}-benzyl)-thiazolidine-2,4-dione]
2 | 1600 nM | CC/C(=N\OCCOc1ccc(Cc2sc(=O)[nH]c2O)cc1)c1ccc(-c2ccccc2)cc1 [5-(4-{2-[1-Biphenyl-4-yl-prop-(E)-ylideneaminooxy]-ethoxy}-benzyl)-thiazolidine-2,4-dione]
3 | 2800 nM | C/C(=N\OCCOc1ccc(Cc2sc(=O)[nH]c2O)cc1)c1ccccn1 [5-(4-{2-[1-Pyridin-2-yl-eth-(E)-ylideneaminooxy]-ethoxy}-benzyl)-thiazolidine-2,4-dione]
4 | 2800 nM | C/C(=N\OCCOc1ccc(Cc2sc(=O)[nH]c2O)cc1)c1cccnc1 [5-(4-{2-[1-Pyridin-3-yl-eth-(E)-ylideneaminooxy]-ethoxy}-benzyl)-thiazolidine-2,4-dione]

The compounds below were run against T1, Peroxisome proliferator-activated receptor gamma (assay: Transactivation activity at Homo sapiens (human) PPARgamma).

Row | Structure (SMILES) | EC50
5 | O=c1[nH]c(O)c(Cc2ccc3c(c2)CC[C@H](Cc2ccccc2)O3)s1 [5-((R)-2-Benzyl-chroman-6-ylmethyl)-thiazolidine-2,4-dione] | 1000 nM
6 | CCCc1cc(Oc2ccccc2)ccc1OCCCCOc1ccc(-c2sc(=O)[nH]c2O)cc1 [5-{4-[4-(4-Phenoxy-2-propyl-phenoxy)-butoxy]-phenyl}-thiazolidine-2,4-dione] | 1000 nM
